Measured values from patent US20150239864A1, “3H-1,2-DITHIOCYCLOPENTENE-3-THIOKETONE COMPOUNDS AND APPLICATION THEREOF” (Soochow University, priority 2012, published 2015).

Legend:
HT22 cells = assay: Glutamate-induced neural oxidative stress injury model in HT22 cells, survival by MTT; type: cell-based, Mouse; details: 5 mM glutamate added with compound at 1, 10, 50 or 100 μM, MTT after 24 h
Experimental: Mouse Hippocampal neuron cell line HT22, 24-well culture plate (Corning), glutamic acid (Glutamate, Sigma), DMEM culture medium (GIBCO), fetal bovine serum (GIBCO), 3-(4,5-dimethylthiazol-2-yl)-2,5-diphenyltetrazolium bromide (MTT, Sigma), dimethyl sulfoxide (Sinopharm Group. Co. Ltd.), and microplate reader (TECAN).
2.1. Cell culture: HT22 cells were taken out of the liquid nitrogen container, and thawed quickly in a water-bath at 37° C. After that, the outside wall of cryopreservation tube was disinfected by alcohol wipes, and it was then placed in a clean bench. The cells were transferred to a centrifuge tube containing 10 ml medium and centrifuged at 1000 rpm for 3 min. After centrifugation, the supernatant was discarded, and 10 mL DMEM containing 10% FBS was added to the centrifuge tube. The mixture was vigorously pipetted to prepare a cell suspension. The cell suspension was inoculated to a 100×20 mm Petri dish. Cells were cultured at 37° C. and 5% CO2. When the cell density reached confluent, the cells were digested and seeded onto the wells of a 24-well plate at the density of 2×10^4/well.
2.2. Treatment and groups: after the cells were cultured in the 24-well plate for 24 hours, 5 mM glutamate was added together with the compound each synthesized in Example 1-10 or Example 13 at a final concentration of 1, 10, 50, or 100 μM. DMSO served as vehicle and was added to the cells of the control group at an equal volume. The viability of the cells was detected by MTT method 24 h after the treatment.
2.3. Detection by MTT: 50 μL, 0.5 mg/ml MTT was added to each well 24 h after the treatment of cells. The cells were further incubated at 37° C. and 5% CO2 for 4 h. Subsequently, the supernatant was discarded. The cells were lysed by adding 500 μL dimethyl sulfoxide (DMSO). The absorbance was detected at 570 nm by a microplate reader, which is positively correlated with survival rate of cells. The survival rate of the cells in the treatment groups was expressed as the percent of the survival rate of the cells without glutamate treatment. All data were expressed as mean±standard deviation (SD). Statistical analysis was carried out for all data using SPSS 17.0. The difference between the groups was tested by one way anova. P<0.01 was considered as very significant difference.

microglia cell line BV2 = assay: LPS-induced inflammatory response of microglia, nitrite by Griess reagent; type: cell-based; details: 200 ng/mL LPS, 24 h, compound at 10-100 μM, vs LPS alone, p<0.01
Experimental: Brain microglia cell line BV-2, 96-well culture plate (Corning, USA), DMEM medium (Hyclone, USA), fetal bovine serum (FBS) (GIBCO, USA), dimethyl sulfoxide (DMSO) (SIGMA, USA), Griess reagent (SIGMA, USA), sodium nitrite (ChemNet, China), microplate reader (BIO-RAD, USA)
2.1. Cell cultures: After taken out of the liquid nitrogen container, BV-2 cells were quickly placed in warm water at 37° C. and gently shaken for thawing. Subsequently, it was centrifuged at 1000 rpm for 3 min, and the supernatant was discarded. […] When 60%-70% of confluence of the passaged cells was achieved, the cells were harvested by centrifugation at 1000 rpm for 3 min. The cells were then stained by trypan blue and counted under a microscope by globulimeter. After cell counting, it was diluted into a suspension containing 150 to 200 thousand of cells/ml, which was then plated in the 96-well plate (15 to 20 thousand of […]).
2.2. Treatment and groups: after the cells were cultured in the […] for 24 h, 200 ng/mL LPS was added together with compound YC1-1 of Example 1, YC1-8 of Example 8 and YC2-2 of Example 12 at a final concentration of 1, 10, 50, or 100 μM. DMSO served as vehicle and was added to the cells of control group at the equal volume. The cells were further incubated in an incubator.
2.3. The amount of nitrite produced was detected 24 h after the atreatment, to characterize the inflammatory response of BV2 cells induced by LPS and the inhibitory effect of compound YC1-1 of Example 1 and compound YC1-8 of Example 8 on the LPS-induced inflammatory response.
Detection method of nitrite: […], supernatant was taken out of the wells of 96-well plate, and added to the corresponding wells of another clean 96-well plate. Subsequently, 50 μL Griess reagent was added to each well, and the OD value was detected at 570 nm. The amount of nitrite was calculated based on the standard curve. The result was expressed as the relative yield of nitrite, wherein the relative yield of the control group treated only by LPS was designated as 1. All data were expressed as mean±standard deviation (SD). […]

[1] = tested on: mouse middle cerebral artery occlusion model; assay: Mouse middle cerebral artery occlusion (MCAO) model, infarct volume by TTC staining; type: in vivo; details: half at 3 h and half at 10 h of reperfusion, 24 h after MCAO, vs vehicle, p<0.05
Experimental: Male ICR mice (body weight of 30±2.0 g) were purchased from Shanghai Laboratory Animal Center, Chinese Academy of Sciences. The mice were raised at room temperature and 12 h cycle of light and dark, with free access to food and water.
2.1. Middle cerebral artery occlusion (MCAO) model: the middle cerebral artery occlusion (MCAO) model was performed by reference to Longa's method or other modified suture-occluded method. The specific experimental procedures were as follows: after anaesthetized by isoflurane, the mouse was fixed in supine position, and the skin of neck and head was sterilized using iodine. The probe of laser-Doppler blood flowmeter was fixed at the midpoint of the line between the ear and the eye on the right side of the mouse to monitor the real-time perfusion in the cerebral cortex. A 1.5 cm incision was made in the middle of the neck to expose common carotid artery on the right side. Tissues were separated under an operating microscope layer by layer. The common carotid artery was first separated which was temporarily ligated 0.5 cm away from the distal end using 5-0 suture. Then, the external carotid artery and internal carotid artery on the right side were subsequently separated and the external carotid artery was ligated 0.5 cm away from the distal end using 5-0 suture. At the same time, the internal carotid artery was temporarily clamped using a mini vascular clamp. Subsequently, a small incision was made by an ophthalmic scissor on the inner side of the ligation at the distal end of the external carotid artery. To occlude the […], one of the ends of the suture was slightly enlarged by heating, coated by silica gel, and sterilized using alcohol. The length of the suture was about 2 cm, and the diameter of the enlarged end was […]. The suture was held using a fine forceps and inserted into the incision on the external carotid artery.). Once the suture passed through the incision of the external carotid artery, the ligation was lifted at the distal end of external carotid artery until the enlarged end of the suture entered the bifurcation of the […]. The suture was then tightened, and the vascular clamp on the internal carotid artery was opened. […] The starting time for occlusion was recorded. For reperfusion, the suture was withdrawn 60 min after middle cerebral artery occlusion. The rectal temperature was maintained at 37.0±0.5° C. by a heating blanket during and after the surgery, until the animal was revived.
2.2 Animal groups and drug administration: the animals were randomly divided into 3 groups, including control group treated with vehicle, YC1-8 group (100 mg/kg) and YC1-8 group (50 mg/kg). There were 8 mice in each group. 12 mg YC1-8 was initially dissolved by 80 μL DMSO, and then diluted by 920 μL corn oil to prepare a solution with the final concentration of 12 mg/mL. One half of dosage of compound YC1-8 was initially administrated at 3 h of reperfusion after ischemia by intraperitoneal injection, while the other half of dosage was administrated at 10 h of reperfusion after ischemia. For the control group, the same volume of DMSO-containing corn oil was administrated to the mice at 3 h and 10 h.
2.3. Detection of the cerebral infarct volumes: 24 h after reperfusion following mouse middle cerebral artery occlusion (MCAO), the mice were sacrificed under anesthetized and the brain was collected. After the brain tissue was stripped off, the olfactory bulb and cerebellum were removed. A series of 5 coronary sections of brain were made at an interval of 1 mm, which were then placed in 2% TTC solution at 37° C. under darkness in a warm bath. The sections were turned over every 15 min, with a total duration of 30 min. The size of cerebral infarction was determined by TTC staining method. Due to the reduction of TTC by […] in mitochondrion, normal brain tissue was red, and the ischemic infarct area was white. […]

| SMILES | Concentration range for protection (HT22 cells) [µM] | other results |
| --- | --- | --- |
| Oc1ccc(-c2cc(=S)ss2)cc1 [YC1-1, 5-p-hydroxyphenyl-3H-1,2-dithiacyclopentene-3-thione] | 10 to 100 | LPS induced inflammatory response of BV2 cells (nitrite production) (microglia cell line BV2): significantly inhibited |
| Fc1ccc(-c2cc(=S)ss2)cc1 [YC1-2, 5-p-fluorophenyl-3H-1,2-dithiacyclopentene-3-thione] | 10 to 100 | – |
| S=c1cc(-c2cccs2)ss1 [YC1-3, 5-(2-thienyl)-3H-1,2-dithiacyclopentene-3-thione] | 10 to 100 | – |
| Cc1ccc(-c2cc(=S)ss2)cc1 [YC1-4, 5-p-methylphenyl-3H-1,2-dithiacyclopentene-3-thione] | 10 to 100 | – |
| Fc1cc(-c2cc(=S)ss2)c(Cl)cc1Cl [YC1-5, 5-(2,4-dichloro-5-fluorophenyl)-3H-1,2-dithiacyclopentene-3-thione] | 1 to 100 | – |
| S=c1cc(-c2ccc3c(c2)OCO3)ss1 [YC1-6, 5-(3,4-methylenedioxyphenyl)-3H-1,2-dithiacyclopentene-3-thione] | 1 to 100 | – |
| COc1ccc(-c2cc(=S)ss2)c(OC)c1 [YC1-7, 5-(2,4-dimethoxyphenyl)-3H-1,2-dithiacyclopentene-3-thione] | 1 to 100 | – |
| COc1ccc(-c2cc(=S)ss2)cc1 [YC1-8, 5-p-methoxyphenyl-3H-1,2-dithiacyclopentene-3-thione] | 10 to 100 | LPS induced inflammatory response of BV2 cells (nitrite production) (microglia cell line BV2): significantly inhibited; infarction volume in cerebral cortex ([1]; 50 mg/kg YC1-8 i.p.): significantly reduced; infarction volume in hemisphere ([1]; 50 mg/kg YC1-8 i.p.): significantly reduced; infarction volume in striatum ([1]; 50 mg/kg YC1-8 i.p.): significantly reduced; infarction volume in cerebral cortex ([1]; 100 mg/kg YC1-8 i.p.): significantly reduced; infarction volume in hemisphere ([1]; 100 mg/kg YC1-8 i.p.): significantly reduced; infarction volume in striatum ([1]; 100 mg/kg YC1-8 i.p.): significantly reduced |
| S=c1cc(-c2ccccc2)ss1 [YC1-9, 5-phenyl-3H-1,2-dithiacyclopentene-3-thione] | 1 to 100 | – |
| S=c1cc(-c2ccc3ccccc3c2)ss1 [YC1-10, 5-(2-naphthyl)-3H-1,2-dithiacyclopentene-3-thione] | 1 to 100 | – |
| CC(=O)Oc1ccccc1C(=O)Oc1ccc(-c2cc(=S)ss2)cc1 [YC2-2, 4-(3H-1,2-dithio-3-thioketone-5-yl)phenyl 2-acetoxy benzoate] | – | LPS induced inflammatory response of BV2 cells (nitrite production) (microglia cell line BV2): significantly inhibited |
| O=C(Oc1ccc(-c2cc(=S)ss2)cc1)c1cccnc1 [YC2-3, 4-(3H-1,2-dithio-3-thioketone-5-yl)phenyl pyridine-3-carboxylate] | 50 to 100 | – |
